Like-named read-outs stand apart in the source and are kept apart here.
Test system: H5N1 virus (strain A/Vietnam/1194/04)
Type: in vivo, Balb/c mice

Structure (SMILES) | survival rate (mouse, in vivo) [%] | survival rate (comparison with existing flu therapeutics, started 24 hours post challenge, siRNA intranasal 100 ug per dose twice a day for two days) [%]
NC(=O)c1ncn([C@@H]2O[C@H](CO)[C@@H](O)[C@H]2O)n1 [Ribavirin] | 0 | 
CC(=O)N[C@H]1[C@H]([C@H](O)[C@H](O)CO)OC(C(=O)O)=C[C@@H]1N=C(N)N [Zanamivir] |  | 40
